Legend:
[1] = Percutaneous absorption of nitric oxide, in vitro Franz human skin finite dose model; format: in vitro ADME; conditions: delivered at a pressure of 1.2 atm as compared with normal pressure; Franz diffusion cell, human skin (FIG. 10)
Procedure: The percutaneous absorption of nitric oxide is evaluated using a Franz human skin finite dose model. The in vitro Franz human skin finite dose model has proven to be a valuable tool for the study of percutaneous absorption and the determination of the pharmacokinetics of topically applied drugs. The model uses human ex vivo cadaver or surgical skin mounted in a specially designed diffusion chamber allowing the skin to be maintained at a temperature and humidity that match typical in vivo conditions. A finite dose of a formulation is applied to the outer surface of the skin and drug absorption is measured by monitoring its rate of appearance in the reservoir solution bathing the inner surface of the skin. In this study, the applied dose is a controlled continuous exposure to a gas. Data defining total absorption, rate of absorption, as well as skin content can be accurately determined in this model. […]
A single center, open label study of nitric oxide formulations is performed. […] The rate and extent of penetration of nitric oxide, at normal pressure and at greater than 1 atm of pressure (e.g., 1.2×, 1.5×, 1.8×, 2.0×, 2.2×, etc.) for continuous exposure durations of 30 and 60 minutes is determined for the amount penetrating through the skin and into the different layers of the skin using a Franz Diffusion Cell. […]

[2] = mixture of 1000 ppm nitric oxide and 21% oxygen; cited from earlier work

## [N]=O [NO, nitric oxide]
[1]
  NO penetration in the epidermis and stratum corneum: increased
[2]
  time for half of the nitric oxide to react to become nitric dioxide: about 3.5 minutes

— patent US9364388B2, “Methods of treatment with nitric oxide at pressures greater than one atmosphere” (Barry University, priority 2012, dated 2016)
